What was measured:
[1] = system: formalin-induced nociceptive behavior; assay: Formalin test in the rat (phase II, chronic pain component); format: in vivo
Method: Formalin Test in the Rat The formalin test (Dubuisson, D. and Dennis, S. G., 1977, Pain, 4, 161-174) represents a model for both acute and chronic pain. In the studies presented here, the chronic pain component (phase II of the formalin test; time period 21-27 min after formalin administration) was evaluated. A biphase nociceptive reaction is induced in freely mobile test animals by a single formalin injection into the dorsal side of a rear paw, the reaction being detected by observation of three clearly distinguishable behavior patterns. Formalin is administered subcutaneously into the dorsal side of the right rear paw of each animal in a volume of 50 μl and a concentration of 5%. The vehicle and the test substances are administered intravenously 5 min, or orally 30 min, before the formalin injection. The specific changes in behavior, such as lifting and shaking of the paw, weight displacement of the animal and biting and licking reactions, are observed and recorded continuously up to 60 min after the formalin administration. […] Rats of the strain Sprague Dawley (Janvier, Belgium) are used as the animal strain. The weight of the animals is 180-200 g; the size of the group was n=10.

hKCNQ2/3 [2] = target: T1, hKCNQ2/3 (Homo sapiens, UniProt O43525+O43526); assay: Fluorescence assay using a voltage sensitive dye (fluorimetry); format: cell-based; settings: for Emax at 10 µM: relative to retigabine = 100%
T1 construct: expressed in transfected cells; host or cells: CHO-K1
Method: Fluorescence Assay using a Voltage Sensitive Dye
Human CHO-K1 cells expressing KCNQ2/3 channels are cultivated adherently at 37° C., 5% CO2 and 95% humidity in cell culture bottles (e.g. 80 cm^2 TC flasks, Nunc) with DMEM-high glucose (Sigma Aldrich, D7777) including 10% FCS (PAN Biotech, e.g. 3302-P270521) or alternatively MEM Alpha Medium (1×, liquid, Invitrogen, #22571), 10% fetal calf serum (FCS) (Invitrogen, #10270-106, heat-inactivated) and the necessary selection antibiotics.
Before being sown out for the measurements, the cells are washed with a 1×DPBS buffer without Ca^2+/Mg^2+ (e.g. Invitrogen, #14190-094) and detached from the bottom of the culture vessel by means of Accutase (PAA Laboratories, #L11-007) (incubation with Accutase for 15 min at 37° C.). The cell count then present is determined using a CASY™ cell counter (TCC model, Schärfe System) in order subsequently to apply, depending on the density optimization for the individual cell line, 20,000-30,000 cells/well/100 μl of the described nutrient medium to 96-well measuring plates of the Corning™ CellBIND™ type (Flat Clear Bottom Black Polystyrene Microplates, #3340). Incubation is then carried out for one hour at room temperature, without gassing or adjusting the humidity, followed by incubation for 24 hours at 37° C., 5% CO2 and 95% humidity.
The voltage-sensitive fluorescent dye from the Membrane Potential Assay Kit (Red™ Bulk format part R8123 for FLIPR, MDS Analytical Technologies™) is prepared by dissolving the contents of a vessel Membrane Potential Assay Kit Red Component A in 200 ml of extracellular buffer (ES buffer, 120 mM NaCl, 1 mM KCl, 10 mM HEPES, 2 mM CaCl2, 2 mM MgCl2, 10 mM glucose; pH 7.4). After removal of the nutrient medium, the cells are washed with 200 μl of ES buffer, then covered with a layer of 100 μl of the dye solution prepared above and incubated for 45 min at room temperature with the exclusion of light.
The fluorescence measurements are carried out with a BMG Labtech FLUOstar™, BMG Labtech NOVOstar™ or BMG Labtech POLARstar™ instrument (525 nm excitation, 560 nm emission, Bottom Read mode). After incubation of the dye, 50 μl of the test substances in the desired concentrations, or 50 μl of ES buffer for control purposes, are introduced into separate cavities of the measuring plate and incubated for 30 min at room temperature while being shielded from light. The fluorescence intensity of the dye is then measured for 5 min and the fluorescence value F1 of each well is thus determined at a given, constant time. 15 μl of a […] KCl solution ([…]) are then added to each well. The change in fluorescence is subsequently measured until all the relevant measured values have been obtained (mainly 5-30 min). At a given time after KCl application, a fluorescence value F2 is determined, in this case at the time of the fluorescence peak.
For calculation, the fluorescence intensity F2 is compared with the fluorescence intensity F1, and the agonistic activity of the target compound on the potassium channel is determined therefrom. F2 and F1 are calculated as follows: […]
In order to determine whether a substance has agonistic activity, […]
for example, can be compared with […]
is determined by adding to the reaction batch only the buffer solution instead of the test substance, determining the value F1K of the fluorescence intensity, adding the potassium ions as described above, and measuring a value F2K of the fluorescence intensity. F2K and F1K are then calculated as follows: […]
A substance has an agonistic activity on the potassium channel when […]
Independently of the comparison of […]
it is possible to conclude that a target compound has agonistic activity if an increase in […]
is to be observed as the dosage of the target compound increases.
Calculations of EC50 and IC50 values are carried out with the aid of ‘Prism v4.0’ software (GraphPad Software™).

hKCNQ2/3 [3] = target: T1, hKCNQ2/3; assay: Voltage clamp (patch-clamp) measurements on stably transfected hKCNQ2/3 CHO-K1 cell line; format: cell-based; settings: at -40 mV, relative to retigabine (10 μM) = 100%, read-out: patch-clamp % Efficacy @ 10 μM (retigabine = 100%)
Method: Voltage Clamp Measurements
In order to confirm a KCNQ2/3-agonistic action of the substances electro-physiologically, patch-clamp measurements (Hamill O P, Marty A, Neher E, Sakmann B, Sigworth F J.: Improved patch-clamp techniques for high-resolution current recording from cells and cell-free membrane patches, Pflugers Arch. 1981 August; 391(2):85-100) were carried out in voltage clamp mode on a stably transfected hKCNQ2/3 CHO-K1 cell line. After formation of the gigaseal, the cells were first clamped at a holding potential of −60 mV. Thereafter, depolarizing voltage jumps were applied up to a potential of +20 mV (increment: 20 mV, duration: 1 second) in order to confirm the functional expression of KCNQ2/3-typical currents. The testing of the substances was carried out at a potential of −40 mV. The increase in current induced by retigabine (10 μM) at −40 mV was first recorded as a positive control on each cell. After complete washing out of the retigabine effect (duration: 80 s), the test substance (10 μM) was applied. The increase in current induced by the test substance was standardized to the retigabine effect and indicated as the relative efficacy (see below).

O=C(CCC(=O)N1CCc2sccc2C1c1ccccc1)NCc1cccc(C(F)(F)F)c1 (stereo not shown) [Illustrative compound 2, 4-oxo-4-(4-phenyl-6,7-dihydrothieno[3,2-c]pyridin-5(4H)-yl)-N-(3-(trifluoromethyl)benzyl)butanamide]
Formalin test rat i.v. @ 10 mg/kg % reduction in noiceptive behavior ([1]; 10 mg/kg, comparison experiments table): 56%
Formalin test rat i.v. % reduction in nociceptive behavior ([1]; dose 10.0 mg/kg, phase II, Table 3): 56 (10.0) %
Emax at 10 µM (hKCNQ2/3 [2]; 10 μM, comparison experiments table, read-out: Fluorimetry % Efficacy @ 10 μM (retigabine = 100%)): 145%
Emax at 10 µM (hKCNQ2/3 [2]; CHO-K1, 10 μM, CHO-K1 cells expressing KCNQ2/3, Table 3, read-out: Fluorimetry % Efficacy @ 10 μM (reti-gabine = 100%)): 165%
EC50 (hKCNQ2/3 [2]; CHO-K1 cells expressing KCNQ2/3, Table 3): 758 nM
EC50 (hKCNQ2/3 [2]; comparison experiments table): 1440 nM
Emax at 10 µM (hKCNQ2/3 [3]): 106%
